{"source": "patent US9949953B2", "about": "“Topical compositions comprising fipronil and permethrin and methods of use” (priority 2012, dated 2018)", "system": "Stomoxys calcitrans", "test": "Stable fly repellency and parasiticidal (diptericidal) efficacy on rats (Example 1)", "type": "in vivo", "experimental": "This study evaluated the effectiveness of a formulation of the invention containing fipronil and permethrin to repel and kill Stomoxys calcitrans on rats after a single administration. Rats in the treatment group (Group 2) were treated once on Day 0 with a topical formulation of the invention containing 9.2 (w/w) fipronil and 41.5% (w/w) permethrin in a solvent system containing DMDA and DGME in a ratio of 0.73:1, DMDA to DGME, to deliver a dose of 30 mg/kg permethrin and 6.7 mg/kg fipronil. Rats in Group 3 were treated with a formulation containing permethrin alone to deliver a dose of 30 mg/kg. The two treatment groups were compared with a control group treated with a solvent system placebo.\nFlies are exposed to the treated rats for 1 hr., then removed. Dead flies are counted at the end of the exposure period and at 4 hr and 24 hr post-exposure. […] This finding is significant because fipronil is not known to have repellent activity.\nThe diptericidal efficacy of the formulations is shown in Table 1 and represented in FIG. 6. The data for repellency are shown in Table 2 and are represented in FIG. 7."}
{"smiles": "CC1(C)C(C=C(Cl)Cl)C1C(=O)OCc1cccc(Oc2ccccc2)c1", "note": "(stereo not shown) [Permethrin]", "values": [{"measurement": "4 hr % efficacy", "setting": "dead flies 4 hr post-exposure, single topical treatment Day 0", "result": 82.0, "unit": "%"}, {"measurement": "24 hr % efficacy", "setting": "dead flies 24 hr post-exposure, single topical treatment Day 0", "result": 74.7, "unit": "%"}, {"measurement": "EOE % efficacy", "setting": "dead flies at end of 1 hr exposure period, single topical treatment Day 0", "result": 74.2, "unit": "%"}, {"measurement": "% Repellency", "setting": "single topical treatment Day 0, measured 24 hours after exposure", "result": 41.2, "unit": "%"}]}
